In patent US20190367516A1 (Bayer Pharma Aktiengesellschaft, priority 2015, published 2019):
Where two headings read alike, the source gives them in different places.

Target: T1, human M2 receptor (Homo sapiens, UniProt P08172)
T1 sequence (P08172 1-466): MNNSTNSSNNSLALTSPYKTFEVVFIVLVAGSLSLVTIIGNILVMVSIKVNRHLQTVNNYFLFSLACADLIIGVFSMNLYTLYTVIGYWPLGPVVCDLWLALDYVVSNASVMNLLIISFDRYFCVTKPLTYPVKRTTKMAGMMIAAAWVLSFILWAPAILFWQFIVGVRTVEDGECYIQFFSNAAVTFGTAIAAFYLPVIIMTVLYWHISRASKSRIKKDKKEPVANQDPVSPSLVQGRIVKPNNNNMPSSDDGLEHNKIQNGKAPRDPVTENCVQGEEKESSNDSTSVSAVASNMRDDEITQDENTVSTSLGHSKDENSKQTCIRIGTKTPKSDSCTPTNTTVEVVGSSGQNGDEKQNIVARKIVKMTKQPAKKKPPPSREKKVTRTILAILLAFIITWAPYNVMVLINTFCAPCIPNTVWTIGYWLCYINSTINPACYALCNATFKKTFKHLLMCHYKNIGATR
Details: for Emax: read-out: Efficiency, boosting of the acetylcholine effect at EC20 acetylcholine concentration; for Efficiency: boosting of the acetylcholine effect at EC20 acetylcholine concentration

[1] = Receptor activity EC50, allosteric potency at EC20 acetylcholine, M2-GIRK1/4 reporter cells, in some cases mean of two or more determinations
[2] = Receptor activity EC50, M2-GIRK1/4 activation test, acetylcholine at EC20, allosteric potency, in some cases mean values from two or more determinations

Structure (SMILES) | EC50 [1] | Emax (M2-GIRK1/4 reporter cells) | Efficiency (M2-GIRK1/4 reporter cells) | EC50 [2]
CCC(COC(F)(F)F)NC(=O)c1cn(-c2c(F)cc(F)cc2F)c2nc(N3C[C@@H](O)[C@H](O)C3)ccc2c1=O (mixture of isomers) [Example 576, 7-[(3R,4R)-3,4-Dihydroxypyrrolidin-1-yl]-4-oxo-N-[1-(trifluoromethoxy)butan-2-yl]-1-(2,4,6-trifluorophenyl)-1,4-dihydro-1,8-naphthyridine-3-carboxamide] | 13 nM | 99.5% | – | –
COC1CN(c2ccc3c(=O)c(C(=O)N[C@@H](C4CC4)C(F)(F)F)cn(-c4c(F)cc(F)cc4F)c3n2)CC1O (mixture of isomers) [Example 582, N-[(1 S)-1-Cyclopropyl-2,2,2-trifluoroethyl]-7-[trans-3-hydroxy-4-methoxypyrrolidin-1-yl]-4-oxo-1-(2,4,6-trifluorophenyl)-1,4-dihydro-1,8-naphthyridine-3-carboxamide] | 14 nM | 100% | – | –
O=C(NC(CC(F)(F)F)C(F)(F)F)c1cn(-c2c(F)cc(F)cc2F)c2nc(N3CCNC3=O)ccc2c1=O (racemic) [Example 586, N-[1,1,1,4,4,4-Hexafluorobutan-2-yl]-4-oxo-7-(2-oxoimidazolidin-1-yl)-1-(2,4,6-trifluorophenyl)-1,4-dihydro-1,8-naphthyridine-3-carboxamide] | 15 nM | 100% | – | –
O=C(NC(CC(F)(F)F)C(F)(F)F)c1cn(-c2c(F)cc(F)cc2F)c2nc(N3CCNC3=O)ccc2c1=O (racemic) [Example 587, N-[1,1,1,4,4,4-Hexafluorobutan-2-yl]-4-oxo-7-(2-oxoimidazolidin-1-yl)-1-(2,4,6-trifluorophenyl)-1,4-dihydro-1,8-naphthyridine-3-carboxamide] | 14 nM | – | 93.5% | –
O=C(NC(CC(F)(F)F)C(F)(F)F)c1cn(-c2c(F)cc(F)cc2F)c2nc(N3CCNC3=O)ccc2c1=O (racemic) [Example 588, N-[1,1,1,4,4,4-Hexafluorobutan-2-yl]-4-oxo-7-(2-oxoimidazolidin-1-yl)-1-(2,4,6-trifluorophenyl)-1,4-dihydro-1,8-naphthyridine-3-carboxamide] | 9 nM | – | 100.0% | –
O=C(N[C@@H](C1CC1)C(F)(F)F)c1cn(-c2c(F)cc(F)cc2F)c2nc(N3CC(O)C4(CC4)C3)ccc2c1=O (mixture of isomers) [Example 600, N-[(1S)-1-Cyclopropyl-2,2,2-trifluoroethyl]-7-[7-hydroxy-5-azaspiro[2.4]hept-5-yl]-4-oxo-1-(2,4,6-trifluorophenyl)-1,4-dihydro-1,8-naphthyridine-3-carboxamide] | 28 nM | 96.9% | – | –
O=C(NC(CC(F)(F)F)C(F)(F)F)c1cn(-c2c(F)cc(F)cc2F)c2nc(N3C[C@@H](O)CC3=O)ccc2c1=O (mixture of isomers) [Example 606, N-[1,1,1,4,4,4-Hexafluorobutan-2-yl]-7-[(4S)-4-hydroxy-2-oxopyrrolidin-1-yl]-4-oxo-1-(2,4,6-trifluorophenyl)-1,4-dihydro-1,8-naphthyridine-3-carboxamide] | 27 nM | 98% | – | –
CCC(COC(F)(F)F)NC(=O)c1cn(-c2c(F)cc(F)cc2F)c2nc(N3CCNC3=O)ccc2c1=O (racemic) [Example 609, 4-Oxo-7-(2-oxoimidazolidin-1-yl)-N-[1-(trifluoromethoxy)butan-2-yl]-1-(2,4,6-trifluorophenyl)-1,4-dihydro-1,8-naphthyridine-3-carboxamide] | 28 nM | 99% | – | –
CCC(COC(F)(F)F)NC(=O)c1cn(-c2c(F)cc(F)cc2F)c2nc(N3CCNC3=O)ccc2c1=O (racemic) [Example 610, 4-Oxo-7-(2-oxoimidazolidin-1-yl)-N-[1-(trifluoromethoxy)butan-2-yl]-1-(2,4,6-trifluorophenyl)-1,4-dihydro-1,8-naphthyridine-3-carboxamide] | 11 nM | – | 100.0% | –
CCC(COC(F)(F)F)NC(=O)c1cn(-c2c(F)cc(F)cc2F)c2nc(N3CCNC3=O)ccc2c1=O (racemic) [Example 611, 4-Oxo-7-(2-oxoimidazolidin-1-yl)-N-[1-(trifluoromethoxy)butan-2-yl]-1-(2,4,6-trifluorophenyl)-1,4-dihydro-1,8-naphthyridine-3-carboxamide] | 17 nM | – | 90.0% | –
O=C(N[C@@H](C1CC1)C(F)(F)F)c1cn(-c2c(F)cc(F)cc2F)c2nc(N3CCC(O)C(O)C3)ccc2c1=O (mixture of isomers) [Example 615, N-[(1 S)-1-Cyclopropyl-2,2,2-trifluoroethyl]-7-[trans-3,4-dihydroxypiperidin-1-yl]-4-oxo-1-(2,4,6-trifluorophenyl)-1,4-dihydro-1,8-naphthyridine-3-carboxamide] | 53 nM | 99.3% | – | –
CC[C@H](NC(=O)c1cn(-c2c(F)cc(F)cc2F)c2nc(N3CC(O)C4(CC4)C3)ccc2c1=O)C(F)(F)F (mixture of isomers) [Example 619, 7-[7-Hydroxy-5-azaspiro[2.4]hept-5-yl]-4-oxo-N-[(2S)-1,1,1-trifluorobutan-2-yl]-1-(2,4,6-trifluorophenyl)-1,4-dihydro-1,8-naphthyridine-3-carboxamide] | 40 nM | 88.6% | – | –
O=C(N[C@@H](C1CC1)C(F)(F)F)c1cn(-c2c(F)cc(F)cc2F)c2nc(N3CC(CO)OC3=O)ccc2c1=O (mixture of isomers) [Example 659, N-[(1S)-1-Cyclopropyl-2,2,2-trifluoroethyl]-7-[5-(hydroxymethyl)-2-oxo-1,3-oxazolidin-3-yl]-4-oxo-1-(2,4,6-trifluorophenyl)-1,4-dihydro-1,8-naphthyridine-3-carboxamide] | 81 nM | 98% | – | –

The remaining lines, values ahead:

EC50 [1] | Emax (M2-GIRK1/4 reporter cells) | Efficiency (M2-GIRK1/4 reporter cells) | EC50 [2] | Structure (SMILES)
21 nM | 95.5% | – | – | O=C(Nc1c(Cl)cccc1Cl)c1cn(-c2ccc(F)cc2F)c2nc(N3CC4CC4(O)C3)ccc2c1=O (racemic) [Example 597, N-(2,6-Dichlorophenyl)-1-(2,4-difluorophenyl)-7-[1-hydroxy-3-azabicyclo[3.1.0]hex-3-yl]-4-oxo-1,4-dihydro-1,8-naphthyridine-3-carboxamide]
43 nM | 93% | – | – | CC(NC(=O)c1cn(-c2ccc(F)cc2F)c2nc(N3C[C@@H](O)CC3=O)ccc2c1=O)C(F)(F)C(F)(F)F (mixture of isomers) [Example 622, 1-(2,4-Difluorophenyl)-7-[(4S)-4-hydroxy-2-oxopyrrolidin-1-yl]-4-oxo-N-[3,3,4,4,4-pentafluorobutan-2-yl]-1,4-dihydro-1,8-naphthyridine-3-carboxamide]
44 nM | 93.5% | – | – | O=C(NC12CC(C1)C2)c1cn(-c2c(F)cc(F)cc2F)c2nc(N3CC(O)C4(CC4)C3)ccc2c1=O (racemic) [Example 626, N-(Bicyclo[1.1.1]pent-1-yl)-7-[7-hydroxy-5-azaspiro[2.4]hept-5-yl]-4-oxo-1-(2,4,6-trifluorophenyl)-1,4-dihydro-1,8-naphthyridine-3-carboxamide]
– | – | 89.5% | – | O=C(NC12CC(C1)C2)c1cn(-c2c(F)cc(F)cc2F)c2nc(N3CC(O)C4(CC4)C3)ccc2c1=O (racemic) [Example 628, N-(Bicyclo[1.1.1]pent-1-yl)-7-[7-hydroxy-5-azaspiro[2.4]hept-5-yl]-4-oxo-1-(2,4,6-trifluorophenyl)-1,4-dihydro-1,8-naphthyridine-3-carboxamide]
– | – | – | 343 nM | CC[C@@H](NC(=O)c1cn(-c2ccc(F)cc2F)c2nc(N3CCC(C)(O)C3=O)ccc2c1=O)C(F)(F)F (single isomer, unassigned) [Example 195]
– | – | – | 137 nM | CC[C@@H](NC(=O)c1cn(-c2ccc(F)cc2F)c2nc(N3CCC(C)(O)C3=O)ccc2c1=O)C(F)(F)F (single isomer, unassigned) [Example 196]
– | – | – | 163 nM | O=C(N[C@H](c1ccccc1Cl)C(F)(F)F)c1cn(-c2ccc(F)cc2F)c2nc(N3CCCC(O)C3=O)ccc2c1=O (single isomer, unassigned) [Example 209]
– | – | – | 285 nM | O=C(N[C@H](c1ccccc1Cl)C(F)(F)F)c1cn(-c2ccc(F)cc2F)c2nc(N3CCCC(O)C3=O)ccc2c1=O (single isomer, unassigned) [Example 210]
– | – | – | 178 nM | CC(NC(=O)c1cn(-c2ccc(F)cc2F)c2nc(N3C[C@@H](O)CC3=O)ccc2c1=O)c1c(F)cccc1F (single isomer, unassigned) [Example 215]
– | – | – | 200 nM | CC[C@@H](NC(=O)c1cn(-c2ccc(F)cc2F)c2nc(N3CC4CNC(=O)C4C3)ccc2c1=O)C(F)(F)F (single isomer, unassigned) [Example 222]
– | – | – | 330 nM | O=C(NC(c1c(F)cccc1F)C(F)(F)F)c1cn(-c2ccc(F)cc2F)c2nc(N3CCCC(O)C3=O)ccc2c1=O (single isomer, unassigned) [Example 248, 1-(2,4-Difluorophenyl)-N-[1-(2,6-difluorophenyl)-2,2,2-trifluoroethyl]-7-[3-hydroxy-2-oxopiperidin-1-yl]-4-oxo-1,4-dihydro-1,8-naphthyridine-3-carboxamide]
– | – | – | 505 nM | O=C(NC(c1c(F)cccc1F)C(F)(F)F)c1cn(-c2ccc(F)cc2F)c2nc(N3CCCC(O)C3=O)ccc2c1=O (single isomer, unassigned) [Example 249, 1-(2,4-Difluorophenyl)-N-[1-(2,6-difluorophenyl)-2,2,2-trifluoroethyl]-7-[3-hydroxy-2-oxopiperidin-1-yl]-4-oxo-1,4-dihydro-1,8-naphthyridine-3-carboxamide]
